Test results published in US20050267029A1, “Compounds which modulate amyloidogenesis and methods for their identification and use” (priority 2004, published 2005).
Changes are numbered by the printed parent chain. Where two headings read alike, the source gives them in different places. Square brackets hold non-standard residues; d marks the D form. Ends that are not written are not given here.

Assays:
J774A.1 cells [1] = conditions: for Effect on amyloidogenesis / amyloid deposition in cell culture (in words): increasing concentrations of test agent
Description: AA-amyloid deposits were detected by histochemical staining with Alcian blue and direct quantitation by Th-T fluorescence.
The ability of a number of potential anti-amyloid compounds to modulate amyloid formation in this cell culture system was tested. To determine the effects of these potential anti-amyloid compounds, cell culture amyloidogenesis was induced in the presence of increasing concentrations of the test agents. Amyloid loads were quantified by Th-T fluorescence.
The murine monocytic cell line J774A.1 (American Type Culture Collection, Manassas, Va.) was cultured in RPMI (Sigma) medium which contained 25 mM HEPES, 15% fetal bovine serum (FBS) and 50 μg/ml penicillin-streptomycin, at 37° C., 5% CO2. The cell stocks were passaged every four days, and the medium replaced every other day. Cells were seeded at a minimal density in 8-well chamber slides (Lab-Tek®, Nalge Nunc International, Naperville, Ill.) in 350 μl medium/well and allowed to reach about 80-90% confluence (3 days), about 2.2×10^5 cells per well. To induce AA-amyloidogenesis, cells were treated for 24 hours with 30 μg of AEF in the culture medium, then the medium was removed and the cells rinsed with fresh medium. To these cells 350 μl of medium was added containing either 0.3 mg/ml HDL-SAA, HDL, 0.05 mg/ml SAA1.1 or SAA2.1, replenished every two days for 7 days. At the end of the treatment period, the cells were either stained with Congo red to visualize the amyloid deposits, or the cells were dissolved in 1% NaOH and assayed for amyloid fibrils by thioflavin-T (Th-T) fluorescence as described by LeVine (Methods Enzymol. 1999 309:274-284).

J774 cells = assay: HDL-SAA binding/uptake by J774 cells (western blot); assay type: cell-based, murine; conditions: 50 μM
IAPP = molecular target: T1, IAPP (Homo sapiens, UniProt P10997); conditions: cited from earlier work
T1 construct: human islet amyloid polypeptide, a major component of amyloid deposits found in the pancreas
T1 sequence (P10997 34-70 limits assumed): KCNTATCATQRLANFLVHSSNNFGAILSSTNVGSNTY

J774A.1 cells [2] = assay: Cell culture amyloidogenesis, amyloid detected by Congo Red (CR) staining; assay type: cell-based, murine
Description: The murine monocytic cell line J774A.1 (American Type Culture Collection, Manassas, Va.) was cultured in RPMI (Sigma) medium which contained 25 mM HEPES, 15% fetal bovine serum (FBS) and 50 μg/ml penicillin-streptomycin, at 37° C., 5% CO2. The cell stocks were passaged every four days, and the medium replaced every other day. Cells were seeded at a minimal density in 8-well chamber slides (Lab-Tek®, Nalge Nunc International, Naperville, Ill.) in 350 μl medium/well and allowed to reach about 80-90% confluence (3 days), about 2.2×10^5 cells per well. […] At the end of the treatment period, the cells were either stained with Congo red to visualize the amyloid deposits, or the cells were dissolved in 1% NaOH and assayed for amyloid fibrils by thioflavin-T (Th-T) fluorescence as described by LeVine (Methods Enzymol. 1999 309:274-284). […]
Congo Red (CR) staining for amyloid was performed on cells that were rinsed with PBS, fixed for 10 minutes in 70% ethanol, and then stained for 45 minutes with Congo red prepared in alkaline 80% ethanol, NaCl saturated solution. […] Quantitation of amyloid was performed by Th-T fluorescence as described by LeVine (Methods Enzymol. 1999 309:274-284). Fluorescence spectra of Th-T were acquired at 25° C. with a Spectra Max Gemini 96-well plate reader. […] Control spectra of Th-T and cell extract alone were determined. […]

Aβ1-40 = Aβ1-40 (Homo sapiens, UniProt P05067); conditions: 100 μM, cell-free system; cited from earlier work
Chain of Aβ1-40 (P05067 672-711): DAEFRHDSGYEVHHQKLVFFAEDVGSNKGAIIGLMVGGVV

## WRAYTDMKEAGWKDGDKYFHARGNYDAAQRGPG [33-mer, residues 17-49 of murine SAA1.1]
J774A.1 cells [1]; AEF preincubation not used
  Enhancement of amyloid formation: greater than 50%
J774A.1 cells [1]; cells preincubated with AEF
  Enhancement of amyloid formation: up to 180%
J774A.1 cells [1]
  Effect on amyloidogenesis / amyloid deposition in cell culture (in words): increasing amyloid load in culture
J774 cells
  Effect on HDL-SAA binding to J774 cells: completely blocked HDL-SAA binding/uptake

## ADQEANAAGASGKDPNYYRPPGLPAKY (OTHER INFORMATION: Synthetic) [27-mer; R83A/H84A/R86A]
J774A.1 cells [1]
  Effect on amyloidogenesis / amyloid deposition in cell culture (in words): complete loss of inhibitory activity

## chondroitin sulfate [reference compound]
J774A.1 cells [1]
  Effect on amyloidogenesis / amyloid deposition in cell culture (in words): unable to affect amyloid deposition at any concentration tested

## ADQEANRHGRSGKDPNYYRPPGLPAKY [27-mer]
J774A.1 cells [1]
  IC50: 20 nM
J774A.1 cells [1]; 70 nM versus 4.2 μM SAA1.1
  Fold less than the SAA1.1 concentration used to generate AA-amyloid: about 60 fold
J774A.1 cells [1]; 70 nM versus 100 μM
  Fold less peptide needed than the IAPP peptides (100 μM) for similar inhibition: 1400 fold
J774A.1 cells [1]; 27-mer versus PVS
  IC50 fold lower than that for PVS: 25 fold
J774A.1 cells [1]; SAA1.1 concentration 4.2 μM
  Concentration achieving a similar level of inhibition (80 to 85%) of amyloid load: 70 nM
J774 cells
  Effect on HDL-SAA binding to J774 cells: did not interfere with HDL-SAA binding to cells

## polyvinylsulfonate [PVS, reference compound]
J774A.1 cells [1]; Th-T fluorescence
  100% inhibition of amyloidogenesis (IC100): 9 µM
J774A.1 cells [1]; read-out: 50% inhibition of amyloidogenesis (IC50), Th-T fluorescence, test agent present throughout HDL-SAA treatments
  IC50: 500 nM
J774 cells
  Effect on HDL-SAA binding to J774 cells: prevented HDL-SAA binding to J774 cells

## FLVHSS [residues 15-20 of human islet amyloid polypeptide]
IAPP
  Effect on beta-sheet transition and fibril formation of human islet amyloid polypeptide: strong enhancers of beta-sheet transition and fibril formation

## heparin [reference compound]
J774 cells
  Effect on HDL-SAA binding to J774 cells: prevented HDL-SAA binding to cells

## ADQAANEWGRSGKDPNHFRPAGLPEKY [SEQ ID NO:9]
J774A.1 cells [1]
  Effect on amyloidogenesis / amyloid deposition in cell culture (in words): equivalent inhibitory activity

## LANFLV [residues 12-17 of human islet amyloid polypeptide]
IAPP
  Effect on beta-sheet transition and fibril formation of human islet amyloid polypeptide: strong enhancers of beta-sheet transition and fibril formation

## ANRHGRSGKNPNYYRPPGLPAKY (ANRHGRSGKNPNYYRPPGLPAKY-NH2) [23-mer basic]
J774A.1 cells [2]; 2 μM
  Inhibition of CR-detectable amyloid: completely inhibit CR-detectable amyloid

## ADQEANRHGRSGKDPNYYRPPGLPAKY ([dA][dD][dQ][dE][dA][dN][dR][dH]G[dR][dS]G[dK][dD][dP][dN][dY][dY][dR][dP][dP]G[dL][dP][dA][dK][dY]) [D-27mer]
J774A.1 cells [2]; 20 μM, co-incubated with HDL-SAA
  Formation of CR-detectable amyloid: prevented the formation of any CR-detectable amyloid

## KLVFF [Aβ peptide (residues 16-20)]
Aβ1-40
  Effect on Aβ1-40 fibril assembly: prevent fibril assembly

## PLPAQGKPGPDHYARNDSYAKNRYERG (OTHER INFORMATION: Synthetic) [SEQ ID NO:8, reference compound]
J774A.1 cells [1]
  Effect on amyloidogenesis / amyloid deposition in cell culture (in words): complete loss of inhibitory activity

B1: SAA1.1: purified delipidated murine serum amyloid A isoform 1.1 (protein, UniProt P05366 20-122, looked up)
Serum amyloid A-1 protein: GFFSFVHEAFQGAGDMWRAYTDMKEANWKNSDKYFHARGNYDAAQRGPGGVWAAEKISDGREAFQEFFGRGHEDTIADQEANRHGRSGKDPNYYRPPGLPDKY
J774A.1 cells [1]; purified delipidated isoform 50 μg/ml with AEF
  Amyloid produced, % of HDL-SAA: 9%

B2: SAA2.1: purified delipidated murine serum amyloid A isoform 2.1 (protein, UniProt P05367 20-122, looked up)
Serum amyloid A-2 protein: B1 Serum amyloid A-1 protein with V6I, H7G, N27G, N30D, S31G, G60A, A63S, I76M, D101A
J774A.1 cells [1]; with AEF, CR stain or Th-T fluorescence
  Amyloid produced from SAA form (in words): no amyloid was detected
